Test results reported in paper doi:10.1101/2025.03.14.643404, “A Bivalent Molecular Glue Linking Lysine Acetyltransferases to Oncogene-induced Cell Death” (bioRxiv, 2025).

Experiments:
p300^WT = p300^WT (Homo sapiens, UniProt Q09472); assay: TR-FRET binary displacement assay, p300 WT bromodomain; format: binding; settings: α = Kd binary/Kd ternary
Experimental: Drugs were digitally dispensed (Tecan D300e) into protein-containing wells, and the plate was allowed to incubate in the dark for 1 hour at room temperature. Emission at 490 nm (terbium) and 520 nm (FITC) was measured on a PHERAstar FS plate reader (BMG Labtech) upon excitation with 337 nm. The ratio of signal at 520 nm to 490 nm was calculated and normalized to DMSO-treated protein.

PUMA/BBC3 = assay: Global proteome profiling in SUDHL5, PUMA/BBC3 abundance; format: cell-based, human; settings: SUDHL5, 10 nM, 24 hours
Experimental: SUDHL5 cells (6M cells in 6 mL RPMI-1640 media supplemented with 10% FBS and 1x pen-strep) were treated with 0.1% DMSO, 10 nM TCIP3, 10 nM Neg1, 10 nM Neg2, or 250 nM dCBP1 (1000x stocks in DMSO for final 0.1% DMSO concentration) in 3 biologically independent replicates. The cells were washed twice with TBS (50 mM Tris, pH 8.5, and 150 mM NaCl) and then stored at −80 °C until use.
Lysis was performed by first thermally denaturing the samples in residual wash buffer for 5 min at 95 °C. Fresh Lysis Buffer (8 M urea, 150 mM NaCl, and 100 mM HEPES, pH 8.0, in MS-grade water) was then added, and the lysates were homogenized using needle ultrasonication and then normalized to 30 μg of 2 mg/mL by diluting with Lysis Buffer via a Bradford protein concentration assay (Bio-Rad 5000006) in technical duplicates. […]
Samples were then desalted using SOLAμ SPE HRP Peptide Desalting columns (Thermo 60209–001) with a Positive Pressure Manifold and all MS-grade reagents. […] The samples were then reconstituted in 0.1% FA in water and then analyzed by LC-MS/MS (see below).
The reconstituted desalted peptides were then analyzed using a nanoElute 2 UHPLC (Bruker Daltonics, Bremen, Germany) coupled to a timsTOF HT (Bruker Daltonics, Bremen, Germany) via a CaptiveSpray nano-electrospray source. […]

p300^WT, sequence (Q09472 1049-1156 limits assumed): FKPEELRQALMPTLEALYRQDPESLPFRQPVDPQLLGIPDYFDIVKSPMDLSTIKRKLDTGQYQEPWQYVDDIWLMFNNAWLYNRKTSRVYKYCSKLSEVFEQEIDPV

cooperativity α (p300^WT): 4.2
Compound: CNC(=O)COc1cc2cc(Nc3nc(N4CCC(C(=O)N5CCN(CCC(=O)N6CCC(n7nc(N8CCCc9cc(-c%10cnn(C)c%10)c(C(F)F)cc98)c8c7CCN(C(=O)NC)C8)CC6)CC5)CC4)ncc3Cl)cc(OC)c2n(C)c1=O [TCIP3]
PUMA/BBC3 log2(TCIP3 / DMSO fold change) (PUMA/BBC3): 0.72
